Results reported in patent US20100267952A1, “USE OF NOVEL COMPOUND HAVING AFFINITY FOR AMYLOID, AND PROCESS FOR PRODUCTION OF THE SAME” (NIHON MEDI-PHYSICS CO., LTD., priority 2007, published 2010).
Where two headings read alike, the source gives them in different places.

Assays:
[1] = test system: Salmonella typhimurium TA100; assay: Reverse mutation test (Ames test), TA100; assay type: cell-based
Method: (§1) In order to examine mutagenicity of Compound I-1, I-2, I-4 and I-5, reverse mutation test using Salmonella typhimurium TA98 and TA100 (hereinafter referred to as Ames test) was conducted.
(§2) The test was conducted without addition of S9mix and with addition of S9mix. Dimethylsulfoxide was used as a negative control. A positive control was 2-(2-furyl)-3-(5-nitro-2-furyl)acrylamide in case S9mix was not added, and 2-aminoanthracene in case S9mix was added.
(§3) The amount of each sample to be added to the test plate was 7 dosages (geometric ratio 4) with the maximum dose being 1250 μg/plate for Compounds I-1 and I-5, and 7 dosages (geometric ratio 3) with the maximum dose being 5000 μg/plate for Compounds I-2 and I-4. After a sample to be examined and a strain (TA98 or TA100), or a sample to be examined, S9mix and the strain were mixed together, the mixture was multilayered using soft agar on a medium of a test plate, and then incubated at 37° C. for 48 hours.

amyloid (amylin) = biological target: T1, amyloid (amylin) (Homo sapiens, UniProt P10997); assay: Inhibition of binding of Thioflavin T to amyloid derived from amylin; conditions: Thioflavin T 5 μmol/L
T1 construct: Amylin (human) (manufactured by Wako) was dissolved in phosphate buffer (pH 7.4); purchased Wako
T1 sequence (P10997 34-70 limits assumed): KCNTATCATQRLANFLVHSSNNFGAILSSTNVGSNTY
Method: Amylin is an amyloid accumulating in pancreas of type II diabetes.
(3) The amyloid suspension was dissolved in 50 mM phosphate buffer (pH 7.4) at a concentration of amylin of 15 μM.
(4) Samples in which each compound for evaluation and amyloid were dissolved in a 50 mM phosphate buffer (pH 7.4) at final concentrations shown in Table 2-1 were prepared.
(5) A sample in which 100 μL of 50 mM phosphate buffer (pH 7.4) and 50 μL of 50 mM glycin-NaOH buffer (pH 8.5) were mixed was made as a blank, and subjected to the same procedure as in (4) and used for a calculation of inhibition ratio.
(6) The microplate filled with the sample solutions was left to stand still for 30 hours. Then, fluorescence strength of each sample solution was measured (measurement conditions: excitation wavelength of 446 nm, emission wavelength of 490 nm) with microplate reader (type: SPECTRA MAX GEMINI XS, manufactured by Molecular Devices) (hereinafter, A denotes the fluorescence strength in a sample with zero (0) concentration of each compound for evaluation, and B denotes the fluorescence strength in a sample with 1.5 μmol/L or higher concentration of each compound for evaluation).
(7) Using the fluorescence strength measured above in (6), the following formula (2-1): […]
was used to determine the inhibition ratio.

[2] = biological target: T2, amyloid (aggregated Aβ1-40) (Homo sapiens, UniProt P05067); assay: Measurement of affinity with amyloid: inhibition of [125I]3′-I-BTA-0 binding; conditions: [125I]3′-I-BTA-0 400 pmol/L, amyloid 1 μmol/L, 22° C., 3 hours
T2 construct: Aβ1-40 (Peptide Institute, INC.) was dissolved in phosphate buffer (pH 7.4); purchased Peptide Institute, INC
T2 sequence (P05067 672-711 limits assumed): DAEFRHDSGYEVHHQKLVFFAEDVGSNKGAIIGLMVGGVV
Method: Affinity of the present compounds with amyloid was examined by the following in vitro binding tests.
(1) Aβ1-40 (Peptide Institute, INC.) was dissolved in phosphate buffer (pH 7.4) and shaken at 37° C. for 62-72 hours, to obtain a 1 mg/mL suspension of aggregated Aβ (hereinafter referred to as amyloid suspension in this Example).
(3) According to the method described in a literature (Wang, Y., et al., J. Labeled Compounds Radiopharmaceut. 44, 5239 (2001)), [^125I]2-(3′-iodo-4′-aminophenyl)benzothiazole (hereinafter referred to as […]) was prepared from a labeling precursor 2-(4′-aminophenyl)benzothiazole, and dissolved in ethanol.
(5) Samples in which [^125I]3′-I-BTA-0, each compound for evaluation and amyloid were dissolved in a 0.1% bovine serum albumin-containing phosphate buffer (pH 7.4) at final concentrations shown in Table 1-2 were prepared. The resulting samples were filled in each well (about 0.3 mL in volume) of a 96-well microplate.
(6) The microplate filled with the sample solutions was shaken at a given rate (400 rpm) at 22° C. for 3 hours. Then, each sample solution was filtered through a glass fiber filter (trade name: Mulutiscreen™-FC, manufactured by Millipore), to separate the [^125I]3′-I-BTA-0 attached to amyloid from the free [^125I]3′-I-BTA-0.
(7) The glass fiber filter used for the filtration of each sample solution was washed with a 0.1% bovine serum albumin-containing phosphate buffer (pH 7.4) (0.5 mL×5), and radioactivity of the glass fiber filter was measured with an autowell gamma system (manufactured by Aloka, Type: ARC-301B).
(8) Separately, a solution of containing 15 μmol/L of 6-Me-BTA-2, […] of [^125I]3′-I-BTA-0 and 1 μmol/L of Aβ1-40 were prepared and subjected to the same procedures as described above in (6) and (7) to measure a radioactivity level. The measured radioactivity level was defined as the background radioactivity level, and used in the calculation of the inhibition ratio (hereinafter referred to as BG).
(9) Using the radioactivity levels measured above in (7) and (8), the inhibition ratio was determined by the following formula (1-1).
A graph in which values converted by probit transformation from the obtained inhibition ratios were plotted relative to logarithms of concentrations of compounds for evaluation was prepared to obtain an approximate straight line by the least square method. Using the line, the concentration of each compound for evaluation was determined, at which the radioactivity level is half of the level of the sample free from each compound for evaluation, and was defined as a 50% inhibition concentration of each compound (hereinafter referred to as IC50% value). Using the value as an indicator, affinity of each compound for evaluation with amyloid (aggregated Aβ1-40) was evaluated.

[3] = test system: Salmonella typhimurium TA98 and TA100; assay: Reverse mutation test (Ames test), overall judgment; assay type: cell-based; conditions: TA98 and TA100, with and without S9mix
Method: as §1, §2, §3
The numbers of reverse mutation colonies of the respective strains in the group treated with Compounds I-1, I-2, I-4 and I-5 were less than two times the number in the group treated with the negative control, regardless of addition of S9mix and the addition amount of a sample to be examined. From the aforementioned results, it is judged that Compounds I-1, I-2, I-4 and I-5 are negative in the Ames test and have no mutagenicity.

[4] = test system: Salmonella typhimurium TA98; assay: Reverse mutation test (Ames test), TA98; assay type: cell-based
Method: as §1, §2, §3

[5] = biological target: T2, amyloid (aggregated Aβ1-40); assay: Measurement of binding to amyloid (radiolabelled compound, glass fiber filtration); conditions: amyloid 2.5-1000 nmol/L, 22° C., 3 hours
Method: (7) A relation between the amount of the Compound I-6 binding to amyloid and the amount of added amyloid was evaluated from the measurement results of (6). Unspecific binding was determined using a sample to which the Compound I-2 (non-RI labeled compound) was added to become 100 nM (at a final concentration) above in (4) (Example I-7).
(8) Using [^125I]-IMPY synthesized in the above Reference Example I-6, the same procedure as the above (2) to (6) were carried out to obtain control data (Comparative Example I-1).
A relation between the concentration of amyloid in the sample solution and the radioactive count on the glass fiber filter measured above in (6) is shown in FIG. 1-11. The radioactivity on the glass fiber was increased proportionally to the concentration (addition amount) of amyloid (Example I-7). […] Therefore, the radioactive count on the glass fiber is a value reflecting the amount of the compound attached to amyloid, and the slope of the graph which plotted the radioactive count relative to the concentration of amyloid is a value which can be an index representing the intensity of binding to amyloid.

[6] = Transferability into brain and clearance; assay type: in vivo, male Wistar rats; conditions: rats, intravenous injection
Description: Three animals were used for Experiment I-20 and Comparative Experiment I-9, and two animals were used for Experiment I-21 at the respective time points.

[7] = biological target: T3, amyloid (aggregated Aβ1-40) injected into amygdaloid nucleus (Homo sapiens, UniProt P05067); assay: Confirmation of imaging of amyloid in brain (autoradiogram of brain slice, Aβ1-40 injected rat); assay type: in vivo, male Wistar rat; conditions: tail vein, 16 MBq equivalent, brain removed 60 minutes after injection
T3 construct: Aβ1-40 (Peptide Institute, INC.) was dissolved in phosphate buffer (pH 7.4); purchased Peptide Institute, INC
T3 sequence (P05067 672-711): as the sequence (P05067 672-711 limits assumed) above
Method: The following experiment was carried out in order to examine whether amyloid in brain can be imaged by the compound of the present invention.
(1) Aβ1-40 (manufactured by Peptide Institute, INC.) was dissolved in phosphate buffer (pH 7.4) and shaken at 37° C. for 72 hours, to obtain 1 mg/mL of a suspension of aggregated Aβ (hereinafter referred to as amyloid suspension in this Example).
(2) 25 μL (corresponding to 25 μg) of the amyloid suspension was injected into an amygdaloid nucleus on one side of a male Wistar rat (7-week old). As a control, 25 μL of a phosphate buffered physiological saline solution (pH 7.4) was injected into an amygdaloid nucleus on the other side of the rat. The rats were examined 1 day after the injection of the amyloid suspension and the phosphate buffered physiological saline solution (pH 7.4).
This solution was injected into the rat through the tail vein (dosage: 0.5 mL, dosed radioactivity: 16 MBq equivalent).
(4) Brain was removed 60 minutes after the injection to prepare a brain slice of 10 μm in thickness with a microtome (type: CM3050S, manufactured by LEICA). The brain slice was exposed to an imaging plate for 20 hours, and then image analysis was carried out by use of a Bio-imaging Analyzer (type: BAS-2500; manufactured by FUJIFILM Corporation).

[8] = Partition coefficient based on the octanol extraction method; assay type: physicochemical; conditions: octanol / 10 mmol/L phosphate buffer (pH 7.4)
Method: After the mixture was centrifuged with a low-speed centrifuge (2000 rpm×60 min.), the octanol layer and the water layer were sampled each in an amount of 1 mL, and subjected to measurement of radioactivity count with an autowell gamma system (manufactured by Aloka, Type: ARC-301B). Using the obtained radioactivity count, log Poctanol was calculated in accordance with the equation (1-2).

[9] = International Publication No. WO03/106439; cited from earlier work
[10] = [125I]-labeled, normal mice; cited from earlier work
[11] = [11C]-labeled, rats; cited from earlier work

## FCCCOc1ccc(-c2cn3cc(Br)ccc3n2)cc1 [Compound I-1, 6-bromo-2-[4′-(3″-fluoropropoxy)phenyl]imidazo[1,2-a]pyridine]
[1]
  Mutagenicity, TA100, With addition of S9mix: Negative
  Mutagenicity, TA100, Without addition of S9mix: Negative
Amyloid (amylin); compound 1.5 μmol/L
  Inhibition ratio (%) of binding of amyloid (amylin) to Thioflavin T: 14.5%
Amyloid (amylin); compound 15 μmol/L
  Inhibition ratio (%) of binding of amyloid (amylin) to Thioflavin T: 37.0%
Amyloid (amylin); compound 30 μmol/L
  Inhibition ratio (%) of binding of amyloid (amylin) to Thioflavin T: 43.7%
[2]
  IC50: 1.4 nM
[3]
  Ames test judgment: negative
[4]
  Mutagenicity, TA98, With addition of S9mix: Negative
  Mutagenicity, TA98, Without addition of S9mix: Negative

## FCCCOc1ccc(-c2cn3cc(I)ccc3n2)cc1 [Compound I-2, 2-[4′-(3″-fluoropropoxy)phenyl]-6-iodoimidazo[1,2-a]pyridine]
[1]
  Mutagenicity, TA100, With addition of S9mix: Negative
  Mutagenicity, TA100, Without addition of S9mix: Negative
Amyloid (amylin); compound 1.5 μmol/L
  Inhibition ratio (%) of binding of amyloid (amylin) to Thioflavin T: 28.9%
Amyloid (amylin); compound 15 μmol/L
  Inhibition ratio (%) of binding of amyloid (amylin) to Thioflavin T: 26.6%
Amyloid (amylin); compound 30 μmol/L
  Inhibition ratio (%) of binding of amyloid (amylin) to Thioflavin T: 28.2%
[2]
  IC50: 0.9 nM
[3]
  Ames test judgment: negative
[4]
  Mutagenicity, TA98, With addition of S9mix: Negative
  Mutagenicity, TA98, Without addition of S9mix: Negative

## FCCOc1ccc(-c2cn3cc(Br)ccc3n2)cc1 [Compound I-3, 6-bromo-2-[4′-(2″-fluoroethoxy)phenyl]imidazo[1,2-a]pyridine]
[2]
  IC50: 1.8 nM

## FCCCOc1ccc(-c2cn3cc(I)cnc3n2)cc1 [Compound I-5, 2-[4′-(3″-fluoropropoxy)phenyl]-6-iodoimidazo[1,2-a]pyrimidine]
[1]
  Mutagenicity, TA100, With addition of S9mix: Negative
  Mutagenicity, TA100, Without addition of S9mix: Negative
[2]
  IC50: 55.4 nM
[3]
  Ames test judgment: negative
[4]
  Mutagenicity, TA98, With addition of S9mix: Negative
  Mutagenicity, TA98, Without addition of S9mix: Negative

## FCCCOc1ccc(-c2cn3cc([125I])ccc3n2)cc1 [Compound I-6, 2-[4′-(3″-fluoropropoxy)phenyl]-6-[^125I]iodoimidazo[1,2-a]pyridine]
[5]
  slope of radioactive count on glass fiber relative to concentration of amyloid (index of intensity of binding to amyloid): greater than the slope for [^125I]-IMPY

## FCCCOc1ccc(-c2cn3cc([123I])ccc3n2)cc1 [Compound I-7, 2-[4′-(3″-fluoropropoxy)phenyl]-6-[^123I]iodoimidazo[1,2-a]pyridine]
[6]
  Radioactive distribution per unit weight in brain, After 2 min.: 1.10 % ID/g
  Radioactive distribution per unit weight in brain, After 5 min.: 0.75 % ID/g
  Radioactive distribution per unit weight in brain, After 30 min.: 0.12 % ID/g
  Radioactive distribution per unit weight in brain, After 60 min.: 0.05 % ID/g
[7]
  accumulation of radioactivity on intracerebral amyloid (autoradiogram): possesses a property of accumulating on intracerebral amyloid and a capability of imaging intracerebral amyloid

## [18F]CCCOc1ccc(-c2cn3cc(Br)ccc3n2)cc1 [Compound I-8, 6-bromo-2-[4′-(3″-[^18F]fluoropropoxy)-phenyl]imidazo[1,2-a]pyridine]
[6]
  Radioactive distribution per unit weight in brain, After 2 min.: 1.20 % ID/g
  Radioactive distribution per unit weight in brain, After 5 min.: 0.75 % ID/g
  Radioactive distribution per unit weight in brain, After 30 min.: 0.18 % ID/g
  Radioactive distribution per unit weight in brain, After 60 min.: 0.12 % ID/g
[8]
  logPoctanol value: 2.0

## CC(=C(C#N)C#N)c1ccc2cc(N(C)CCF)ccc2c1 [FDDNP, 2-(1-{6-[(2-fluoroethyl)(methyl)amino]-2-naphthyl}ethylidene)malononitrile]
[9]
  reverse mutation test: positive

## CN(C)c1ccc(-c2nc3ccc(I)cc3o2)cc1 [IBOX, 6-iodo-2-[4′-(N,N-dimethylamino)phenyl]benzoxazole]
[10]
  clearance from normal tissues: insufficient in clearance from normal tissues

## CNc1ccc(/C=C/c2ccc(O)cc2)cc1 [SB-13, (E)-4-methylamino-4′-hydroxystilbene]
[11]
  clearance from normal tissues: it cannot be said that the clearance is sufficiently fast

## CN(C)c1ccc(-c2nc3ccc(I)cc3s2)cc1 [TZDM, 6-iodo-2-[4′-(N,N-dimethylamino)phenyl]benzothiazole]
[10]
  clearance from normal tissues: insufficient in clearance from normal tissues

## CN(C)c1ccc(/C=C/c2ccc(I)cc2)cc1 [m-I—SB, (E)-4-dimethylamino-4′-iodostilbene]
[10]
  clearance from normal tissues: insufficient in clearance from normal tissues
